In patent publication US8222284B2, “Stable formulations of thiadiazole derivative” (Eli Lilly and Company, priority 2007, dated 2012):

How the values were obtained:
Format in all cases: physicochemical
[1] = Enantiomeric (chiral) stability of the compound in buffer solutions, chiral HPLC assay
Experimental: (§1) Stability for N-{4-(2,2-dimethyl-propionyl)-(5R)-5-[(2-ethylamino-ethanesulfonylamino)-methyl]-5-phenyl-4.5-dihydro-[1,3,4]thiadiazol-2-yl}-2,2-dimethyl-propionamide (the compound) is assessed at 0.1 mg/mL in various buffers adjusted from pH 2 through 8 with various pH adjusting agents (e.g. 0.1 and 1 N HCl; 0.1, 1, and 5 N NaOH) and at different storage conditions (e.g. 5° C., 25° C., and 40° C. at 75% relative humidity). Hereinafter, the 40° C. at 75% relative humidity storage condition will be referred to as 40° C. These buffers include 10 mM and 50 mM tartrate (40° C.), 10 mM phosphate (25 and 40° C.), 50 mM phosphate (40° C.), and 10 mM citrate (25 and 40° C. Additional solution stability studies include 10 mM citrate (pH 8; 5° C., 25° C., and 40° C.) and 10 mM NaCl, 10 mM sodium sulfate, 10 mM mesylate, 10 mM tartrate, 10 mM phosphate, and 10 mM citrate (pH 8, 40° C). Lyophilized stability studies for N-{4-(2,2-dimethyl-propionyl)-(5R)-5-[(2-ethylamino-ethanesulfonylamino)-methyl]-5-phenyl-4,5-dihydro-[1,3,4]thiadiazol-2-yl}- 2-dimethyl-propionamide involve solutions containing 10 mM tartrate buffer at pH 3 which are lyophilized and subjected to storage at 5° C., 25° C., and 40 ° C. for 1, 3, and 6 months. Finally, the enantiomeric stability for N-{4-(2,2-dimethyl-propionyl)-(5R)-5-[(2-ethylamino-ethanesulfonylamino-methyl]-5-phenyl-4,5-dihydro-[1,3,4]thiadiazol-2-yl}-2,2-dimethyl-propionamide is assessed when dissolved in various organic solvents and aqueous/solvent mixtures, including methanol, ethanol, acetonitrile, acetone, ethyl acetate, and 50% ethanol/50% water (all at 25° C. and 40° C.) and in 1-octanol (25° C.).
(§2) The enantiomeric stability is measured with a chiral HPLC assay employing polar ionic separation conditions. Those conditions include Column: Chirobiotic T, 150×4.6 mm; Detector UV, 290 nm; Flow: 0.225-0.35 mL/min., adjust to optimize chiral separation; injection: 2 μL-10 μL; Column Temperature: 45° C.; Mobile Phase: 0.01% TEA, 1.0% HOAc, 1.0% water (DIW) in methanol. Enantioselectivity is very sensitive to mobile phase composition, specifically the acid:base ratio. For this reason, the TEA and HOAc additives are accurately measured and then delivered by pipette into the mobile phase while stirring.

[2] = Lyophilized stability study (10 mM tartrate buffer pH 3, lyophilized and stored), chiral conversion
Experimental: as §1, §2

[3] = Enantiomeric stability when dissolved in organic solvents and aqueous/solvent mixtures
Experimental: as §1
The enantiomeric stability is measured with a chiral HPLC assay employing polar ionic separation conditions. […] For this reason, the TEA and HOAc additives are accurately measured and then delivered by pipette into the mobile phase while stirring.

chiral conversion of the compound ([1]; 10 mM citrate buffer, pH 2.1, at least 96 hours, 40° C.): no chiral conversion | chiral conversion of the compound ([1]; 10 mM citrate buffer, pH 2.1, at least 120 hours, 25° C.): no chiral conversion | chiral conversion of the compound ([1]; 10 mM citrate buffer, pH 3.3, at least 96 hours, 40° C.): no chiral conversion | chiral conversion of the compound ([1]; 10 mM citrate buffer, pH 3.3, at least 120 hours, 25° C.): no chiral conversion | chiral conversion of the compound ([1]; 10 mM citrate buffer, pH 4.2, at least 96 hours, 40° C.): no chiral conversion | chiral conversion of the compound ([1]; 10 mM citrate buffer, pH 4.2, at least 120 hours, 25° C.): no chiral conversion | % of the compound remains ([1]; 10 mM citrate buffer, pH 8.4, 24 hours, 25° C.): 95.8% | % of the compound remains ([1]; 10 mM citrate buffer, pH 8.4, 120 hours, 5° C.): 99.3% | chiral conversion of the compound ([1]; 10 mM sodium phosphate buffer, pH 2.3, at least 120 hours, 25° C.): no chiral conversion | chiral conversion of the compound ([1]; 10 mM sodium phosphate buffer, pH 2.3, at least 120 hours, 40° C.): no chiral conversion | chiral conversion of the compound ([1]; 10 mM sodium phosphate buffer, pH 3.4, at least 120 hours, 25° C.): no chiral conversion | chiral conversion of the compound ([1]; 10 mM sodium phosphate buffer, pH 3.4, at least 120 hours, 40° C.): no chiral conversion | chiral conversion of the compound ([1]; 10 mM sodium phosphate buffer, pH 5.4, at least 120 hours, 25° C.): no chiral conversion | chiral conversion of the compound ([1]; 10 mM sodium phosphate buffer, pH 5.4, at least 120 hours, 40° C.): no chiral conversion | chiral conversion of the compound ([1]; 10 mM tartrate buffer, pH 2.1, at least 96 hours, 40° C., 0.1 mg/mL): no chiral conversion | chiral conversion of the compound ([1]; 10 mM tartrate buffer, pH 3.1, at least 96 hours, 40° C., 0.1 mg/mL): no chiral conversion | chiral conversion of the compound ([1]; 10 mM tartrate buffer, pH 4,1, at least 96 hours, 40° C., 0.1 mg/mL): no chiral conversion | % of the compound remains ([1]; 10 mM tartrate buffer, pH 6.2, 96 hours, 40° C.): 97.5% | % of the compound remains ([1]; 10 mM tartrate buffer, pH 8.7, 96 hours, 40° C.): 60.3% | chiral conversion of the compound ([1]; 50 mM phosphate buffer, pH 2.2, at least 96 hours, 40° C.): no chiral conversion | chiral conversion of the compound ([1]; 50 mM phosphate buffer, pH 3.3, at least 96 hours, 40° C.): no chiral conversion | chiral conversion of the compound ([1]; 50 mM phosphate buffer, pH 5.0, at least 96 hours, 40° C.): no chiral conversion | chiral conversion of the compound ([1]; 50 mM tartrate buffer, pH 2.0, at least 120 hours, 40° C., 0.1 mg/mL): no chiral conversion | chiral conversion of the compound ([1]; 50 mM tartrate buffer, pH 2.9, at least 120 hours, 40° C., 0.1 mg/mL): no chiral conversion | chiral conversion of the compound ([1]; 50 mM tartrate buffer, pH 3.9, at least 120 hours, 40° C., 0.1 mg/mL): no chiral conversion | % of the compound remains ([1]; citrate buffer, pH 6.2, 96 hours, 40° C.): 98.2% | % of the compound remains ([1]; citrate buffer, pH 6.2, 120 hours, 25° C.): 99.9% | chiral conversion of the compound ([2]; lyophilized formulation pH 3.0, 1 month, 5° C.): no chiral conversion | chiral conversion of the compound ([2]; lyophilized formulation pH 3.0, 1 month, 25° C.): no chiral conversion | chiral conversion of the compound ([2]; lyophilized formulation pH 3.0, 1 month, 40° C. (75% relative humidity)): no chiral conversion | chiral conversion of the compound ([2]; lyophilized formulation pH 3.0, 3 months, 5° C.): no chiral conversion | chiral conversion of the compound ([2]; lyophilized formulation pH 3.0, 3 months, 25° C.): no chiral conversion | chiral conversion of the compound ([2]; lyophilized formulation pH 3.0, 3 months, 40° C. (75% relative humidity)): no chiral conversion | chiral conversion of the compound ([2]; lyophilized formulation pH 3.0, 6 months, 5° C.): no chiral conversion | chiral conversion of the compound ([2]; lyophilized formulation pH 3.0, 6 months, 25° C.): no chiral conversion | chiral conversion of the compound ([2]; lyophilized formulation pH 3.0, 6 months, 40° C. (75% relative humidity)): no chiral conversion | stability / conversion to the S enantiomeric form, compared with the other solvents tested ([3]; in 50% ethanol/50% water (25° C. and 40° C.)): less stable | stability / conversion to the S enantiomeric form, compared with the other solvents tested ([3]; in acetonitrile (25° C. and 40° C.)): less stable | stability / conversion to the S enantiomeric form, compared with the other solvents tested ([3]; in ethyl acetate (25° C. and 40° C.)): less stable
Structure (SMILES): CCNCCS(=O)(=O)NC[C@@]1(c2ccccc2)SC(NC(=O)C(C)(C)C)=NN1C(=O)C(C)(C)C [the compound, N-{4-(2,2-dimethyl-propionyl)-(5R)-5-[(2-ethylamino-ethanesulfonylamino)-methyl]-5-phenyl-4,5-dihydro-[1,3,4]thiadiazol-2-yl}-2,2-dimethyl-propionamide]
